Literature values, collected in patent publication US20120252835A1, “STABLE TEMSIROLIMUS COMPOSITION AND PROCESS OF PREPARING SAME” (ASTRON RESEARCH LIMITED, priority 2011, published 2012).

For “Rapamycin, 42-[3-hydroxy-2-(hydroxymethyl)-2-methylpropanoate] [Temsirolimus]”, the “Solubility in alcohols acceptable for parenteral administration” value (ethanol, propylene glycol, polyethylene glycol and the likes) is listed as “soluble” and the Solubility in water (water) is listed as “practically insoluble”.
